Patent US4160829A, “Antibacterial 1,2,4-oxadiazolylacetamido cephalosporins” (Gist-Brocades N.V., priority 1972, dated 1979)
Values after ≈ are worked out from the molar mass of the structure shown. Where two headings read alike, the source gives them in different places.

Experiments:
Esch.coli U 20 = experiment: agar serial dilution test; format: cell-based, Escherichia coli; settings: Escherichia coli, U20; agar serial dilution, 24 hours, 37° C.; read-out: minimal inhibitory concentration (MIC)
Kleb.pneum. A 809 = experiment: agar serial dilution test; format: cell-based, Klebsiella pneumoniae; settings: Klebsiella pneumoniae; agar serial dilution, 24 hours, 37° C.; read-out: minimal inhibitory concentration (MIC)
Haem.Suis A 2096 = experiment: micro serial dilution test; format: cell-based; settings: micro serial dilution (in brackets), about 18 hours, 30° C. or 37° C.; read-out: minimal inhibitory concentration (MIC)
Bruc. Suis A 2126 = experiment: agar serial dilution test; format: cell-based; settings: Brucella suis, 24 h, read-out: minimal inhibitory concentration (MIC)
Staph.aureus A 321 = experiment: agar serial dilution test; format: cell-based, Staphylococcus aureus; settings: agar serial dilution, 24 hours, 37° C.
Proteus rettgeri A 821 = experiment: protection test; format: in vivo; settings: s.c.
Staph.aureus A 2001 [1] = experiment: micro serial dilution test; format: cell-based, Staphylococcus aureus; settings: micro serial dilution (in brackets), about 18 hours, 30° C. or 37° C.
Pseud.aerug. H 10 = experiment: agar serial dilution test; format: cell-based; settings: agar serial dilution, 24 hours, 37° C.
Prot.rettg. A 821 = experiment: agar serial dilution test; format: cell-based, Proteus rettgeri; settings: agar serial dilution, 24 hours, 37° C.
Staph.aureus A 355 [2] = experiment: agar serial dilution test; settings: penicillinase-producing strain
Pseud.aerug. 2396 = experiment: agar serial dilution test; format: cell-based; settings: agar serial dilution, 24 hours, 37° C.
Dipl.pneum. L 54 = experiment: agar serial dilution test; format: cell-based, Diplococcus pneumoniae; settings: Streptococcus pneumoniae; agar serial dilution, 24 hours, 37° C.; read-out: minimal inhibitory concentration (MIC)
[3] = system: Klebsiella pneumoniae A 265; experiment: protection test; format: in vivo; settings: i.p.
Strep.haem A 1088 = experiment: agar serial dilution test; format: cell-based, Streptococcus haemolyticus; settings: Streptococcus, A1088, 24 hours, 37° C., read-out: minimal inhibitory concentration (MIC)
Prot.mirab. H 3 = experiment: agar serial dilution test; format: cell-based, Proteus mirabilis; settings: Proteus mirabilis
Actinob.equ. T 3 = experiment: agar serial dilution test; format: cell-based; settings: 24 hours, 37° C., read-out: minimal inhibitory concentration (MIC)
Staph.aureus A 2001 [4] = experiment: agar serial dilution test; format: cell-based, Staphylococcus aureus; settings: agar serial dilution, 24 hours, 37° C.
Salm.typh. R 172 = experiment: agar serial dilution test; format: cell-based; settings: 24 h, read-out: minimal inhibitory concentration (MIC)
[5] = system: Pseud.aerug. Wyeth A 1058; experiment: agar serial dilution test; format: cell-based; settings: agar serial dilution, 24 hours, 37° C.
Staph.aureus A 2000 [6] = experiment: micro serial dilution test; format: cell-based, Staphylococcus aureus; settings: micro serial dilution (in brackets), about 18 hours, 30° C. or 37° C.
Proteus mirabilis A 1200 = experiment: protection test; format: in vivo; settings: s.c.; for ED50: protection test
Prot.mirab. A 1200 [7] = experiment: agar serial dilution test; format: cell-based, Proteus mirabilis; settings: agar serial dilution, 24 hours, 37° C.
Staph.aureus A 2000 [8] = experiment: agar serial dilution test; format: cell-based, Staphylococcus aureus; settings: agar serial dilution, 24 hours, 37° C.
Prot.mirab. A 1200 [9] = experiment: micro serial dilution test; format: cell-based; settings: Proteus mirabilis; micro serial dilution (in brackets), about 18 hours, 30° C. or 37° C.; read-out: minimal inhibitory concentration (MIC)
Prot.mirab. L 93 = experiment: agar serial dilution test; format: cell-based, Proteus mirabilis; settings: Proteus mirabilis; agar serial dilution, 24 hours, 37° C.; read-out: minimal inhibitory concentration (MIC)
Strep. faec. L 80 = experiment: agar serial dilution test; format: cell-based, Streptococcus faecalis; settings: agar serial dilution, 24 hours, 37° C.
Salm.dubl. P 43 = experiment: agar serial dilution test; format: cell-based, Salmonella dublin; settings: agar serial dilution, 24 hours, 37° C.
Sarc. lutea ATCC 9341 = experiment: micro serial dilution test; format: cell-based; settings: Micrococcus luteus, ATCC9341; micro serial dilution (in brackets), about 18 hours, 30° C. or 37° C.; read-out: minimal inhibitory concentration (MIC)
Staph.aureus A 355 [10] = experiment: micro serial dilution test; format: cell-based, Staphylococcus aureus; settings: micro serial dilution (in brackets), about 18 hours, 30° C. or 37° C., penicillinase-producing strain
Past.multo. A 723 = experiment: agar serial dilution test; format: cell-based, Pasteurella multocida; settings: agar serial dilution, 24 hours, 37° C.
Bac.Subt.ATCC 6633 = experiment: agar serial dilution test; format: cell-based, Bacillus subtilis; settings: agar serial dilution, 24 hours, 37° C.
Prot.morg. 2241 = experiment: agar serial dilution test; format: cell-based; settings: agar serial dilution, 24 hours, 37° C.
acute toxicity in mice = settings: mouse, in vivo, ip; mice (Swiss), one intraperitoneal administration
Experimental: (a) For sodium 7-[(3-methyl-1,2,4-oxadiazol-5-yl)-acetamido]-cephalosporanate (as prepared in Example 10), the acute toxicity was determined in mice (Swiss) with one intraperitoneal administration. The LD50 appeared to be >6000 mg/kg (Cephalotin-LD50 >6000 mg/kg).

Shig.equir. T 3 = experiment: agar serial dilution test; format: cell-based; settings: 24 hours, 37° C.
Escherichia coli = experiment: protection test; format: in vivo; settings: ip
[11] = system: Staph. aureus pen.resistant; experiment: protection test; format: in vivo; settings: Staphylococcus aureus, sc
in vivo = experiment: in vivo; parameters: species or system rabbits; settings: rabbit, im, 50 mg/kg
Experimental: Blood levels of the above mentioned test compound and of cephalotin were determined after an intramuscular administration of 50 mg/kg of these compounds in an aqueous solution in rabbits. After half an hour for the compound of Example 10, a value of 38.3 μg/ml was found and for cephalotin 33.9 μg/ml. In urine, 35.9% of the administered compound of Example 10 was retrieved, while in the case of cephalotin 22.2% was retrieved within six hours.

Klebsiella pneumoniae = experiment: protection test; format: in vivo; settings: ip, protection test, i.p., read-out: ED50
Salm.typh. R 127 = experiment: agar serial dilution test; format: cell-based; settings: 24 hours, 37° C.
Haem.infl. A 1030 = experiment: micro serial dilution test; format: cell-based; settings: micro serial dilution (in brackets), about 18 hours, 30° C. or 37° C.
Bruc.melit. A 488 = experiment: microbe, parasite or virus in culture; format: cell-based; settings: Brucella melitensis, 24 h, read-out: minimal inhibitory concentration (MIC)
Strep.haem. A 266 = experiment: agar serial dilution test; format: cell-based, Streptococcus haemolyticus; settings: Streptococcus; agar serial dilution, 24 hours, 37° C.; read-out: minimal inhibitory concentration (MIC)
Proteus rettgeri = experiment: protection test; format: in vivo; settings: Providencia rettgeri, sc; protection test, s.c.; read-out: ED50
[12] = read-out: minimal inhibitory concentration (MIC)

## Cn1nnnc1SCC1=C(C(=O)O)N2C(=O)[C@@H](NC(=O)Cc3nc(CC(=O)O)no3)[C@H]2SC1 [Compound F, disodium 7-[(3-carboxymethyl-1,2,4-oxadiazol-5-yl)-acetamido]-3[1-methyl-tetrazol-5-yl-mercaptomethyl] 3-cephem-4-carboxylate]
Esch.coli U 20
  MIC: 0.75 µg/mL
Kleb.pneum. A 809
  MIC: 0.5 µg/mL
Haem.Suis A 2096
  MIC: 0.23 µg/mL
Bruc. Suis A 2126
  MIC: 1 µg/mL
Staph.aureus A 321; Staphylococcus aureus, A321, 24 h, read-out: minimal inhibitory concentration (MIC)
  MIC: 3 µg/mL
Proteus rettgeri A 821; Providencia rettgeri, A821, sc, protection test
  ED50: 0.023 mg/kg
Proteus rettgeri A 821; reference Cefalotin
  Potency ratio: > 5
Staph.aureus A 2001 [1]; Staphylococcus aureus, A2001, 18 h, read-out: minimal inhibitory concentration (MIC)
  MIC: 3.7 µg/mL
Pseud.aerug. H 10; [12]
  MIC: 100 µg/mL
Prot.rettg. A 821; Providencia rettgeri, 24 h, read-out: minimal inhibitory concentration (MIC)
  MIC: 0.25 µg/mL
Staph.aureus A 355 [2]; Staphylococcus aureus, A355, 24 h, read-out: minimal inhibitory concentration (MIC), agar serial dilution, 24 hours, 37° C.
  MIC: 6 µg/mL
Pseud.aerug. 2396; [12]
  MIC: 100 µg/mL
Dipl.pneum. L 54
  MIC: 1 µg/mL
[3]; Klebsiella pneumoniae, A265, ip, protection test
  ED50: 16 mg/kg
[3]; reference Cefalotin
  Potency ratio: 5,7
Strep.haem A 1088
  MIC: 3 µg/mL
Prot.mirab. H 3; agar serial dilution, 24 hours, 37° C., read-out: minimal inhibitory concentration (MIC)
  MIC: 1.5 µg/mL
Actinob.equ. T 3
  MIC: 0.5 µg/mL
Staph.aureus A 2001 [4]; Staphylococcus aureus, A2001, 24 h, read-out: minimal inhibitory concentration (MIC)
  MIC: 6 µg/mL
Salm.typh. R 172
  MIC: 0.75 µg/mL
[5]; [12]
  MIC: 100 µg/mL
Staph.aureus A 2000 [6]; Staphylococcus aureus, A2000, 18 h, read-out: minimal inhibitory concentration (MIC)
  MIC: 4 µg/mL
Proteus mirabilis A 1200; Proteus mirabilis, A1200, sc, read-out: ED50
  ED50: 2.2 mg/kg
Proteus mirabilis A 1200
  ED50: 1,35 mg/kg
Proteus mirabilis A 1200; reference Cefalotin
  Potency ratio: 6,9
Proteus mirabilis A 1200; reference Cefazolin
  Potency ratio: 6,5
Prot.mirab. A 1200 [7]; Proteus mirabilis, 24 h, read-out: minimal inhibitory concentration (MIC)
  MIC: 3 µg/mL
Staph.aureus A 2000 [8]; Staphylococcus aureus, A2000, 24 h, read-out: minimal inhibitory concentration (MIC)
  MIC: 6 µg/mL
Prot.mirab. A 1200 [9]
  MIC: 1.2 µg/mL
Prot.mirab. L 93
  MIC: 1.5 µg/mL
Strep. faec. L 80; Enterococcus faecalis, read-out: minimal inhibitory concentration (MIC)
  MIC: > 100 µg/mL
Salm.dubl. P 43; Salmonella enterica, read-out: minimal inhibitory concentration (MIC)
  MIC: 0.5 µg/mL
Sarc. lutea ATCC 9341
  MIC: 3.7 µg/mL
Staph.aureus A 355 [10]; Staphylococcus aureus, A355, read-out: minimal inhibitory concentration (MIC)
  MIC: 6 µg/mL
Past.multo. A 723; Pasteurella multocida, read-out: minimal inhibitory concentration (MIC)
  MIC: 1 µg/mL
Bac.Subt.ATCC 6633; Bacillus subtilis, ATCC6633, 24 h, read-out: minimal inhibitory concentration (MIC)
  MIC: 1.5 µg/mL
Prot.morg. 2241; 24 h, read-out: minimal inhibitory concentration (MIC)
  MIC: 25 µg/mL

## CC(=O)OCC1=C(C(=O)O)N2C(=O)[C@@H](NC(=O)Cc3nc(C)no3)[C@H]2SC1 [Example 10, 7-[(3-methyl-1,2,4-oxadiazol-5-yl)-acetamido]-cephalosporanic acid]
Acute toxicity in mice
  LD50: > 6000 mg/kg
Esch.coli U 20
  MIC: 6 µg/mL (≈ 15.1 µM)
Shig.equir. T 3
  minimal inhibitory concentration (MIC): 3 µg/mL (≈ 7.57 µM)
Escherichia coli
  ED50: 120 mg/kg
Staph.aureus A 321
  minimal inhibitory concentration (MIC): 0.25 µg/mL (≈ 0.631 µM)
Staph.aureus A 2001 [1]
  minimal inhibitory concentration (MIC): 0.3 µg/mL (≈ 0.757 µM)
Pseud.aerug. H 10
  minimal inhibitory concentration (MIC): > 100 µg/mL
Prot.rettg. A 821
  minimal inhibitory concentration (MIC): 3 µg/mL (≈ 7.57 µM)
Staph.aureus A 355 [2]; agar serial dilution, 24 hours, 37° C.
  minimal inhibitory concentration (MIC): 1 µg/mL (≈ 2.52 µM)
Pseud.aerug. 2396
  minimal inhibitory concentration (MIC): > 100 µg/mL
[11]
  ED50: 31 mg/kg
In vivo
  concentration at 0.5 h: 38300 ng/mL
Prot.mirab. H 3; 24 h, read-out: minimal inhibitory concentration (MIC), agar serial dilution, 24 hours, 37° C.
  MIC: 12.5 µg/mL (≈ 31.5 µM)
Staph.aureus A 2001 [4]
  minimal inhibitory concentration (MIC): 1 µg/mL (≈ 2.52 µM)
[5]
  minimal inhibitory concentration (MIC): > 100 µg/mL
Staph.aureus A 2000 [6]
  minimal inhibitory concentration (MIC): 0.9 µg/mL (≈ 2.27 µM)
Prot.mirab. A 1200 [7]
  minimal inhibitory concentration (MIC): 6 µg/mL (≈ 15.1 µM)
Klebsiella pneumoniae
  ED50: 2.3 mg/kg
Staph.aureus A 2000 [8]
  minimal inhibitory concentration (MIC): 1 µg/mL (≈ 2.52 µM)
Salm.typh. R 127
  minimal inhibitory concentration (MIC): 3 µg/mL (≈ 7.57 µM)
Prot.mirab. L 93
  MIC: 1.5 µg/mL (≈ 3.78 µM)
Haem.infl. A 1030
  minimal inhibitory concentration (MIC): 125 µg/mL (≈ 315 µM)
Strep. faec. L 80
  minimal inhibitory concentration (MIC): 50 µg/mL (≈ 126 µM)
Salm.dubl. P 43
  minimal inhibitory concentration (MIC): 3 µg/mL (≈ 7.57 µM)
Staph.aureus A 355 [10]
  minimal inhibitory concentration (MIC): 0.6 µg/mL (≈ 1.51 µM)
Bruc.melit. A 488
  MIC: 6 µg/mL (≈ 15.1 µM)
Strep.haem. A 266
  MIC: 0.03 µg/mL (≈ 0.0757 µM)
Past.multo. A 723
  minimal inhibitory concentration (MIC): 1.5 µg/mL (≈ 3.78 µM)
Bac.Subt.ATCC 6633
  minimal inhibitory concentration (MIC): 0.25 µg/mL (≈ 0.631 µM)
Proteus rettgeri
  ED50: 1.25 mg/kg
Prot.morg. 2241
  minimal inhibitory concentration (MIC): 50 µg/mL (≈ 126 µM)

## O=C(O)Cc1nc(Cc2ccccc2)no1 [Example 12A, 3-benzyl-1,2,4-oxadiazol-5-yl-acetic acid]
Antiphlogistic activity
  antiphlogistic activity: antiphlogistic activity
